This note sets out measurements from patent US9957267B2, “Somatostatin modulators and uses thereof” (Crinetics Pharmaceuticals, Inc., priority 2015, dated 2018).

Holding throughout (assay type): cell-based
Assay [1] addresses T1, human somatostatin receptor subtype 2a (Homo sapiens, UniProt P30874).
T1 construct: expressed in transfected cells
The assay can be described thus: cAMP assay for SSTR2a agonists (HTRF cAMP kit, NKH-477 stimulated). To be noted: CHO cells stably expressing human SSTR2a, 1.6 μM NKH-477. As for the experimental part:
Chinese hamster ovary (CHO) cells stably expressing one of the six human or rodent somatostatin receptor subtypes are grown to 85-100% confluence on standard tissue culture dishes in F12-Ham's growth media (Hyclone) with following additives: 10% donor calf serum (Hyclone), 200 U/mL penicillin (Hyclone), 200 μg/mL streptomycin (Hyclone), 20 mM HEPES (Hyclone), 200 μg/mL hygromycin Hyclone.
General overview: All SSTR subtypes are Gi coupled G-protein coupled receptors (GPCRs) that lead to decreases in intracellular cyclic AMP (cAMP) when activated by an agonist. Therefore, measurement of intracellular cAMP levels can be used to assess whether compounds of the invention are agonists of SSTR subtypes (John Kelly, Troy Stevens, W. Joseph Thompson, and Roland Seifert, Current Protocols in Pharmacology, 2005, 2.2.1-2.2). One example of an intracellular cAMP assay is described below.
Four days prior to the assay, 5000 Chinese hamster ovary (CHO) cells stably expressing the human somatostatin receptor subtype 2a are plated in each well of a 96-well tissue culture plate (Nest Biotech Cell, flat bottom with low evaporation tissue culture treated; Polystyrene; Non-Pyrogenic) in F12-Ham's media (100 μL/well) supplemented with 200 μg/mL of hygromycin. Incubate at 37 C, 5% CO2, 95% humidity for four days. The cells should reach full confluence. On the day of the assay, various dilutions of the compounds of the invention are prepared in assay buffer (HRTF cAMP kit, Cisbio) in the presence of 1.6 μM NKH-477 (a water-soluble forskolin derivative) and 50 μL of the dilutions are added to the cultured cells and incubated for 20 minutes at 37° C. […] 50 μL of lysis buffer (HRTF cAMP kit, Cisbio) is added to each well and incubated at room temperature for 30 minutes, after which 150 μL assay buffer is added to each well. In a 384-well plate (Grenier, 784-080), 10 μL of assay mixture is added to 10 μL of developing mixture, containing cAMP detection and visualization antibodies are added and the assay is allowed incubate for 1-24 hours at room temperature. The intracellular cAMP concentrations are then measured using a commercially available detection kit (for example, the cAMP HTRF kit, Cisbio). The measured intracellular cAMP concentrations are plotted vs. the concentration of the compounds of the invention and the EC50 of the compounds are calculated using standard methods.

For assay [2], the target named is T2, SSTR1 (Homo sapiens, UniProt P30872).
T2 construct: expressed in transfected cells
The assay can be described thus: cAMP functional agonist assay, CHO cells expressing SSTR1. The conditions noted are these: CHO cells stably expressing SSTR1, cAMP; read-out: SSTR1 EC50. In short, it runs like this:
(§1)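 CHO cells stably expressing the human or rodent somatostatin receptor subtype. Agonism measured as decrease in intracellular cAMP via Gi coupling.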

Assay [3] deals with SSTR3 (UniProt P32745). The assay can be described thus: cAMP functional agonist assay, CHO cells expressing SSTR3. To be noted: CHO cells stably expressing SSTR3, cAMP. In outline: (§2)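 CHO cells stably expressing a single somatostatin receptor subtype, grown to 85–100% confluence in F12-Ham's with 10% donor calf serum and hygromycin. Agonism assessed as a decrease in intracellular cAMP via Gi coupling.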

Assay [4] addresses T3, SSTR4 (Homo sapiens, UniProt P31391).
T3 construct: expressed in transfected cells
The assay can be described thus: cAMP functional agonist assay, CHO cells expressing SSTR4. To be noted: CHO cells stably expressing SSTR4, cAMP; read-out: SSTR4 EC50. In outline:
as §1

Assay [5] has as its target T4, SSTR5 (Homo sapiens, UniProt P35346).
T4 construct: expressed in transfected cells
Put plainly: cAMP functional agonist assay, CHO cells expressing SSTR5. To be noted: CHO cells stably expressing SSTR5, cAMP. In outline: as §2

Where only a bound is given, the exact number is not on record here.

T3 sequence (P31391 whole entry): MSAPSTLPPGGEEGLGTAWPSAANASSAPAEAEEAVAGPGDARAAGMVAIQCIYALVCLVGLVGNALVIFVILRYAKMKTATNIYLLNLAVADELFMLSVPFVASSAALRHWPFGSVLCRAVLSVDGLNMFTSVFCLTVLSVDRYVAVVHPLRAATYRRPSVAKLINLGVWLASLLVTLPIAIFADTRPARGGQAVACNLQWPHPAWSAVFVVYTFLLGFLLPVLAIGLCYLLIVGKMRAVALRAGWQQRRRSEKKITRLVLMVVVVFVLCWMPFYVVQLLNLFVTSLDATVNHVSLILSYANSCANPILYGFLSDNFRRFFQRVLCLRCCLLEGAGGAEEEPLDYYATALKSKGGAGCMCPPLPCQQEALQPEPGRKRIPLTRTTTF
T4 sequence (P35346 whole entry): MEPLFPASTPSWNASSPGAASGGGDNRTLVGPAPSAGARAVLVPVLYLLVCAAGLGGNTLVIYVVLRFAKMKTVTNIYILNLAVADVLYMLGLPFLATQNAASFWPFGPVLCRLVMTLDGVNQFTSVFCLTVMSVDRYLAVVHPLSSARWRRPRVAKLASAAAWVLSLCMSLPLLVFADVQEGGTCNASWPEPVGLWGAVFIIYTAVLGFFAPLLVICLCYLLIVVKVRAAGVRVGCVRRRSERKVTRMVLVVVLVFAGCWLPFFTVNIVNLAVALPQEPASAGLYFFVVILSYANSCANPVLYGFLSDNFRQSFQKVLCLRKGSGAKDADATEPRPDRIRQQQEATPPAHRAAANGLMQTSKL
Sequence of SSTR3 (P32745 whole entry): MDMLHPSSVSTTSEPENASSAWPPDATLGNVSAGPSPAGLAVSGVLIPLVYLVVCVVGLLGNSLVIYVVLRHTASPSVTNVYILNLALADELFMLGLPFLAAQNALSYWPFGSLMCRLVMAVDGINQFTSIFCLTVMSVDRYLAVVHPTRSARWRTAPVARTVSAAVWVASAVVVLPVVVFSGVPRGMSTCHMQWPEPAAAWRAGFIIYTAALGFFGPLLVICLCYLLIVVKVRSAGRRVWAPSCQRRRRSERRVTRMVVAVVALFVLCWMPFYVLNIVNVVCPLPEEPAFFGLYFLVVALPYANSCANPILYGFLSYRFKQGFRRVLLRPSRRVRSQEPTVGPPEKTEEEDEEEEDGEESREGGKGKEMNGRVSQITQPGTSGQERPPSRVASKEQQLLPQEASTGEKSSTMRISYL
T1 sequence (P30874 whole entry): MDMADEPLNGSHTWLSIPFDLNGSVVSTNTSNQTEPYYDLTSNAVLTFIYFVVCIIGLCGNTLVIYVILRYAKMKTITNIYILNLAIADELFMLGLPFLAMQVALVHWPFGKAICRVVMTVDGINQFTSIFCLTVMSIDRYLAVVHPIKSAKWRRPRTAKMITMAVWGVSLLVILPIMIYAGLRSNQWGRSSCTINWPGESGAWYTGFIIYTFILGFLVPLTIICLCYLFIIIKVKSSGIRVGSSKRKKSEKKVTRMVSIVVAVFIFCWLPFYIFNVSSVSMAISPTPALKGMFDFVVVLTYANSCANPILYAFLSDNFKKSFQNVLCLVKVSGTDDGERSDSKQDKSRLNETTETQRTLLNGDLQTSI
T2 sequence (P30872 whole entry): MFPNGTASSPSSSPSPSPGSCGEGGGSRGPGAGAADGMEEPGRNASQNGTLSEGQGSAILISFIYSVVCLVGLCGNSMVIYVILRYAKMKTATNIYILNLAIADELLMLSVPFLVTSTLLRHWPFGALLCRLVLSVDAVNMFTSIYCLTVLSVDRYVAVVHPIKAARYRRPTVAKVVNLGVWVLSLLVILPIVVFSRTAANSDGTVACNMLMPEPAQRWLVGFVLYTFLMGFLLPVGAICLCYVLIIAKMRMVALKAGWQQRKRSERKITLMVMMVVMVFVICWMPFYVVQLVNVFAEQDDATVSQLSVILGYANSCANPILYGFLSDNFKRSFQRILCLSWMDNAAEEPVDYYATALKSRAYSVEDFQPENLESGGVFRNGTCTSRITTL

As a reminder, the EC50 is the concentration needed to bring the measured effect to its halfway point. As to `Cc1cc(Cl)cc(-c2cnc3ncn(-c4cc(O)cc(Cl)c4)c(=O)c3c2CN(C)C[C@@H]2CCCN2)c1` [Compound A-49, 3-(3-chloro-5-hydroxyphenyl)-6-(3-chloro-5-methylphenyl)-5-({methyl[(2S)-pyrrolidin-2-ylmethyl]amino}methyl)-3H,4H-pyrido[2,3-d]pyrimidin-4-one], the EC50 was less than 100 nM in assay [1]; 100 to 10000 nM in assay [2]; less than 100 nM in assay [3]; less than 100 nM in assay [4]; greater than 10000 nM in assay [5].
In the case of `Cc1cc(Cl)cc(-c2cnc3ncn(-c4cc(F)cc(C(N)=O)c4)c(=O)c3c2CN(C)C[C@@H]2CCCN2)c1` [Compound A-50, 3-[6-(3-chloro-5-methylphenyl)-5-({methyl[(2S)-pyrrolidin-2-ylmethyl]amino}methyl)-4-oxo-3H,4H-pyrido[2,3-d]pyrimidin-3-yl]-5-fluorobenzamide], the EC50 was less than 100 nM in assay [1]; 100 to 10000 nM in assay [2]; 100 to 10000 nM in assay [3]; less than 100 nM in assay [4]; greater than 10000 nM in assay [5].
Take `Cc1cc(Cl)cc(-c2cnc3ncn(-c4cc(F)cc(C(N)=O)c4)c(=O)c3c2CN(C)C[C@H]2CCCN2)c1` [Compound A-51, 3-[6-(3-chloro-5-methylphenyl)-5-({methyl[(2R)-pyrrolidin-2-ylmethyl]amino}methyl)-4-oxo-3H,4H-pyrido[2,3-d]pyrimidin-3-yl]-5-fluorobenzamide]: the EC50 in assay [1] is less than 100 nM; in assay [2], greater than 10000 nM; in assay [3], less than 100 nM; in assay [4], less than 100 nM; in assay [5] it was greater than 10000 nM.
On to `Cc1cc(Cl)cc(-c2cnc3ncn(-c4cc(O)ccc4F)c(=O)c3c2CN(C)C[C@@H]2CCCN2)c1` [Compound A-54, 6-(3-chloro-5-methylphenyl)-3-(2-fluoro-5-hydroxyphenyl)-5-({methyl[(2S)-pyrrolidin-2-ylmethyl]amino}methyl)-3H,4H-pyrido[2,3-d]pyrimidin-4-one], for which the EC50 in assay [1] was less than 100 nM; in assay [2], 100 to 10000 nM; in assay [3] it was less than 100 nM; in assay [4] it was less than 100 nM; in assay [5] it was greater than 10000 nM.
In the case of `Cc1cc(C)cc(-c2cnc3nc(C)n(-c4cc(O)cc(F)c4)c(=O)c3c2CN(C)C[C@@H]2CCCN2)c1` [Compound A-55, 6-(3,5-dimethylphenyl)-3-(3-fluoro-5-hydroxyphenyl)-2-methyl-5-({methyl[(2S)-pyrrolidin-2-ylmethyl]amino}methyl)-3H,4H-pyrido[2,3-d]pyrimidin-4-one], the EC50 in assay [1] is less than 100 nM; in assay [2], greater than 10000 nM; in assay [3], 100 to 10000 nM; in assay [4], less than 100 nM; in assay [5], 100 to 10000 nM.
Consider `CCc1nc2ncc(-c3cc(C)cc(Cl)c3)c(CN(C)C[C@@H]3CCCN3)c2c(=O)n1-c1cccc(O)c1` [Compound A-57, 6-(3-chloro-5-methylphenyl)-2-ethyl-3-(3-hydroxyphenyl)-5-({methyl[(2S)-pyrrolidin-2-ylmethyl]amino}methyl)-3H,4H-pyrido[2,3-d]pyrimidin-4-one], for which the EC50 in assay [1] is less than 100 nM; in assay [2], 100 to 10000 nM; in assay [3], less than 100 nM; in assay [4], less than 100 nM; in assay [5] it was 100 to 10000 nM.
Take `Cc1cc(Cl)cc(-c2cnc3nc(C(C)C)n(-c4cccc(O)c4)c(=O)c3c2CN(C)C[C@@H]2CCCN2)c1` [Compound A-58, 6-(3-chloro-5-methylphenyl)-3-(3-hydroxyphenyl)-5-({methyl[(2S)-pyrrolidin-2-ylmethyl]amino}methyl)-2-(propan-2-yl)-3H,4H-pyrido[2,3-d]pyrimidin-4-one]: the EC50 in assay [1] was less than 100 nM; in assay [2], 100 to 10000 nM; in assay [3] it was 100 to 10000 nM; in assay [4], less than 100 nM; in assay [5], 100 to 10000 nM.
As for `Cc1cc(Cl)cc(-c2cnc3nc(C)n(-c4cc(O)cc(F)c4)c(=O)c3c2CN(C)C[C@@H]2CCCN2)c1` [Compound A-59, 6-(3-chloro-5-methylphenyl)-3-(3-fluoro-5-hydroxyphenyl)-2-methyl-5-({methyl[(2S)-pyrrolidin-2-ylmethyl]amino}methyl)-3H,4H-pyrido[2,3-d]pyrimidin-4-one], the EC50 was less than 100 nM in assay [1]; greater than 10000 nM in assay [2]; less than 100 nM in assay [3]; less than 100 nM in assay [4]; 100 to 10000 nM in assay [5].
Regarding `CC[C@H](N)CN(C)Cc1c(-c2cc(C)cc(C)c2)cnc2ncn(-c3cc(O)cc(F)c3)c(=O)c12` [Compound A-62, 5-({[(2S)-2-aminobutyl](methyl)amino}methyl)-6-(3,5-dimethylphenyl)-3-(3-fluoro-5-hydroxyphenyl)-3H,4H-pyrido[2,3-d]pyrimidin-4-one], the EC50 in assay [1] was less than 100 nM; in assay [2] it was 100 to 10000 nM; in assay [3], less than 100 nM; in assay [4] it was less than 100 nM; in assay [5] it was 100 to 10000 nM.
On to `CC[C@H](N)CN(C)Cc1c(-c2cc(C)cc(Cl)c2)cnc2ncn(-c3cc(O)cc(C(F)(F)F)c3)c(=O)c12` [Compound A-65, 5-({[(2S)-2-aminobutyl](methyl)amino}methyl)-6-(3-chloro-5-methylphenyl)-3-[3-hydroxy-5-(trifluoromethyl)phenyl]-3H,4H-pyrido[2,3-d]pyrimidin-4-one], for which the EC50 in assay [1] was less than 100 nM; in assay [2], 100 to 10000 nM; in assay [3] it was less than 100 nM; in assay [4], less than 100 nM; in assay [5], 100 to 10000 nM.
Take `CCOC(=O)CNCCN(CC)Cc1c(-c2cc(C)cc(C)c2)cnc2ncn(-c3cccc(O)c3)c(=O)c12` [Compound A-68]: the EC50 in assay [1] is 100 to 10000 nM; in assay [2], greater than 10000 nM; in assay [3], greater than 10000 nM; in assay [4] it was 100 to 10000 nM; in assay [5] it was greater than 10000 nM.
With `Cc1cc(C)c(F)c(-c2cnc3ncn(-c4cccc(O)c4)c(=O)c3c2CN(C)CC2CCCCN2)c1` (stereo not drawn) [Compound A-70, 6-(2-Fluoro-3,5-dimethyl-phenyl)-3-(3-hydroxy-phenyl)-5-[(methyl-piperidin-2-ylmethyl-amino)-methyl]-3H-pyrido[2,3-d]pyrimidin-4-one], the EC50 in assay [1] is less than 100 nM; in assay [2], 100 to 10000 nM; in assay [3], less than 100 nM; in assay [4], less than 100 nM; in assay [5], 100 to 10000 nM.
